For experiment [1], the target named is B-Raf kinase (SEQ. ID NO: 2) (Homo sapiens (Human), UniProt P15056). The experiment in a line: Biochemical Assay for B-Raf (2). The settings on record: Table J, biochemical assay (2); read-out: BRAF (2). On the procedure: Biochemical Assay for B-Raf (2)
Activity of B-Raf kinase (SEQ. ID NO: 2) was determined spectroscopically using a coupled pyruvate kinase/lactate dehydrogenase assay that continuously monitors the ATP hydrolysis-dependent oxidation of NADH (e.g., Schindler et al., Science, 2000, 289, 1938-1942). Assays were conducted in 384-well plates (25 μL final volume) using 2 nM B-Raf (Sigma), 1.5 units pyruvate kinase, 2.1 units lactate dehydrogenase, 1 mM phosphoenol pyruvate, 0.7 mM NADH, 50 nM MEK (SignalChem), and 1 mM ATP in assay buffer (100 mM Tris, pH 7.5, 15 mM MgCl2, 0.5 mM DTT, 0.1% octyl-glucoside, 0.002% (w/v) BSA, and 0.002% Triton X-100). Inhibition of B-Raf was measured by adding serial diluted test compound (final assay concentration of 1% DMSO). A decrease in absorption at 340 nm was monitored hourly for 4 h at 30° C. on a multi-mode microplate reader (BioTek). The reaction rate was calculated using the 2 to 3 h time frame. The reaction rate at each concentration of compound was converted to percent inhibition using controls (i.e., reaction with no test compound and reaction with a known inhibitor) and IC50 values were calculated by fitting a four-parameter sigmoidal curve to the data using Prism (GraphPad software).

The target in experiment [2] is C-Raf kinase (SEQ. ID NO: 3) (Homo sapiens (Human), UniProt P04049, Y340D/Y341D). Put plainly: Biochemical Assay for C-Raf (2). The settings on record: Table J, biochemical assay (2); read-out: CRAF (2). In outline:
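Coupled PK/LDH assay following NADH oxidation at 340 nm, read hourly for 4 h at 30 °C with 3.84 nM C-Raf, 50 nM MEK and 1 mM ATP in Tris pH 7.5, 15 mM MgCl2, 1% DMSO. Rates over 2–3 h converted to % inhibition against no-compound and known-inhibitor controls; IC50 from four-parameter sigmoidal fit.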

Experiment [3] addresses B-Raf (V600E) (SEQ. ID NO: 4) kinase (Homo sapiens (Human), UniProt P15056, V600E). Put plainly: Biochemical Assay for B-Raf (V600E) (2). The settings on record: Table J, BRAF V600E, biochemical assay (2); read-out: BRAF VE (2). Here is the method: Biochemical Assay for B-Raf (V600E) (2)
Activity of B-Raf (V600E) (SEQ. ID NO: 4) kinase was determined spectroscopically using a coupled pyruvate kinase/lactate dehydrogenase assay that continuously monitors the ATP hydrolysis-dependent oxidation of NADH (e.g., Schindler et al., Science, 2000, 289, 1938-1942). Assays were conducted in 384-well plates (25 μL final volume) using 0.5 nM B-Raf (deCode), 1.5 units pyruvate kinase, 2.1 units lactate dehydrogenase, 1 mM phosphoenol pyruvate, 0.7 mM NADH, 100 nM MEK (SignalChem), and 1 mM ATP in assay buffer (100 mM Tris, pH 7.5, 15 mM MgCl2, 0.5 mM DTT, 0.1% octyl-glucoside, 0.002% (w/v) BSA, and 0.002% Triton X-100). Inhibition of B-Raf (V600E) was measured by adding serial diluted test compound (final assay concentration of 1% DMSO). A decrease in absorption at 340 nm was monitored hourly for 4 h at 30° C. on a multi-mode microplate reader (BioTek). The reaction rate was calculated using the 3 to 4 h time frame. The reaction rate at each concentration of compound was converted to percent inhibition using controls (i.e., reaction with no test compound and reaction with a known inhibitor) and IC50 values were calculated by fitting a four-parameter sigmoidal curve to the data using Prism (GraphPad software).

The subject of another experiment is Miapaca-2 cells. Put plainly: MiaPaca-2 Cell Proliferation Assay (2). The format is cell-based. Conditions: Homo sapiens, MIA PaCa-2, single agent. Here is the method:
MiaPaca-2 Cell Proliferation Assay (2)
Miapaca-2 cells (catalog #CRL-1420) are obtained from the American Type Culture Collect (ATTC, Manassas, VA). Briefly, cells were grown in DMEM supplemented with 10% characterized fetal bovine serum (Invitrogen, Carlsbad, CA), 2.5% New Zealand sourced horse serum and 1% Penicillin/Streptomycin/L-Glutamine at 37° C., 5% CO2, and 95% humidity. Cells are expanded until reaching 70-95% confluency at which point they are sub-cultured or harvested for assay use. A serial dilution of test compound is dispensed into a 384-well black clear bottom plate in triplicate. Seven hundred fifty cells are added per well in 50 μL complete growth medium in the 384-well plate. Plates are incubated for 67-72 h at 37° C., 5% CO2, and 95% humidity. At the end of the incubation, 10 μL of a 440 μM solution of resazurin (Sigma, St. Louis, MO) in PBS is added to each well of the plate and plates are incubated for an additional 5-6 h at 37° C., 5% CO2, and 95% humidity. Plates are read on a Synergy2 or equivalent reader (Biotek, Winooski VT) using an excitation of 540 nm and an emission of 600 nm. Data is analyzed using Prism software (GraphPad, San Diego, CA) to calculate IC50 values.

These results are taken from patent publication US12319655B2, “RAF kinase inhibitors and methods of use thereof” (Deciphera Pharmaceuticals, LLC, priority 2021, dated 2025).

C-Raf kinase (SEQ. ID NO: 3), sequence (P04049 307-648 Y340D/Y341D): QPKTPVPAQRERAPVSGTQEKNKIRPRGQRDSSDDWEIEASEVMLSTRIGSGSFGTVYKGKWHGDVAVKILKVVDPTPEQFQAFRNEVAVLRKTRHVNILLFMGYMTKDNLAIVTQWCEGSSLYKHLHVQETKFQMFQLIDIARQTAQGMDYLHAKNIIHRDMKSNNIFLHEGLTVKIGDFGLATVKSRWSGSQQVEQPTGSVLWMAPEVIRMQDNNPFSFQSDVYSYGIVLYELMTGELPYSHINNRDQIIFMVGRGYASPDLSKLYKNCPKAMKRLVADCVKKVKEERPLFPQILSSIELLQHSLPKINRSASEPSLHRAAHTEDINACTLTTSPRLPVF
B-Raf (V600E) (SEQ. ID NO: 4) kinase, sequence (P15056 416-766 V600E): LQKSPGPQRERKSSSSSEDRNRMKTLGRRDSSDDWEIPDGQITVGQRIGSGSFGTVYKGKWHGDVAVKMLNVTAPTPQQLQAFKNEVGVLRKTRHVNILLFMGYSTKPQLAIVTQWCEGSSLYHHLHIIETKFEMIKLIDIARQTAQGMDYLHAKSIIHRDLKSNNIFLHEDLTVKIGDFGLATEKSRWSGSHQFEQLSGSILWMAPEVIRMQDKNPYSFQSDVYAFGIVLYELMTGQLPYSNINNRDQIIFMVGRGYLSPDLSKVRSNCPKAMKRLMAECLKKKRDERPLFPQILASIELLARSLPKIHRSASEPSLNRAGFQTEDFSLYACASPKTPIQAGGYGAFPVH
B-Raf kinase (SEQ. ID NO: 2), sequence (P15056 416-766): as the sequence (P15056 416-766 V600E) above, with E185V counted along it

As to `CC(C)(F)c1cc(C(=O)Nc2ccc(F)c(-c3ccnc(-c4ccnc(C(N)=O)c4)c3)c2)ccn1` [Example 491], the IC50 in experiment [1], in experiment [2] and in experiment [3] was not above 100 nM each time.

`[2H]C([2H])([2H])NC(=O)c1cc(-c2cc(-c3cc(NC(=O)c4ccnc(C5(F)CC5)c4)ccc3C)cc(C)n2)ccn1` [Example 498]: the IC50 is 100 to 500 nM in experiment [1], 100 to 500 nM in experiment [2], 1000 to 10000 nM in the experiment with Miapaca-2 cells and not above 100 nM in experiment [3].

Take `CNC(=O)c1cc(-c2cc(-c3cc(NC(=O)c4ccnc(C(C)(C)F)c4)ccc3Cl)ccn2)ccn1` [Example 485]: the IC50 is 100 to 500 nM in experiment [1], not above 100 nM in experiment [2], 1000 to 10000 nM with Miapaca-2 cells and not above 100 nM in experiment [3].

`Cc1ccc(NC(=O)c2ccnc(C(C)(C)F)c2)cc1-c1cnnc(-c2ccnc(C(N)=O)c2)c1` [Example 486]: the IC50 in experiment [1] was 100 to 500 nM; in experiment [2] it was not above 100 nM; with Miapaca-2 cells, 1000 to 10000 nM; in experiment [3] it was not above 100 nM.

`Cc1ccc(NC(=O)c2ccnc(C(C)(C)F)c2)cc1-c1cc(-c2ccnc(C(N)=O)c2)ncc1F` [Example 490]: the IC50 in experiment [1] was 100 to 500 nM; in experiment [2], not above 100 nM; in experiment [3], not above 100 nM.

On to `CNC(=O)c1cc(-c2cc(-c3cc(NC(=O)c4ccnc(C(C)(C)F)c4)c(F)cc3C)ccn2)ccn1` [Example 497], for which the IC50 in experiment [1] was 100 to 500 nM; in experiment [2] it was 100 to 500 nM; in the experiment with Miapaca-2 cells, 1000 to 10000 nM; in experiment [3], not above 100 nM.

Consider `CNC(=O)c1cc(-c2cc(-c3cc(NC(=O)c4ccnc(C(C)(C)F)c4)ncc3C)ccn2)ccn1` [Example 499], for which the IC50 is 100 to 500 nM in experiment [1], not above 100 nM in experiment [2], 1000 to 10000 nM in the experiment on Miapaca-2 cells and not above 100 nM in experiment [3].

Take `[2H]C([2H])([2H])NC(=O)c1cc(-c2cc(-c3cc(NC(=O)c4ccnc(C(C)(C)F)c4)ccc3C)ccn2)ccn1` [Example 489]: the IC50 in experiment [1] was not above 100 nM; in experiment [2] it was not above 100 nM; with Miapaca-2 cells, 1000 to 10000 nM; in experiment [3], not above 100 nM.

For `CNC(=O)c1cc(-c2cc(-c3cc(NC(=O)c4ccnc(C5(F)CC5)c4)ccc3C)cc(C)n2)ccn1` [Example 496], the IC50 is 100 to 500 nM in experiment [1], not above 100 nM in experiment [2], 1000 to 10000 nM with Miapaca-2 cells and not above 100 nM in experiment [3].

As to `[2H]C([2H])([2H])NC(=O)c1cc(-c2cc(-c3cc(NC(=O)c4ccnc(C(C)(C)F)c4)ccc3C)cc(C)n2)ccn1` [Example 493], the IC50 was 100 to 500 nM in experiment [1], not above 100 nM in experiment [2], 1000 to 10000 nM in the experiment on Miapaca-2 cells and not above 100 nM in experiment [3].

Regarding `Cc1ccc(NC(=O)c2ccnc(C(C)(C)F)c2)cc1-c1cc(-c2ccnc(C(N)=O)c2)ncn1` [Example 488], the IC50 in experiment [1], in experiment [2] and in experiment [3] was not above 100 nM in each case.

On to `Cc1ccc(NC(=O)c2cccc(C(F)(F)F)c2)cc1-c1ccnc(-c2ccnc(NC(=O)C3CC3)c2)c1` [Example 502], for which the IC50 in experiment [1] was not above 100 nM; in experiment [2], not above 100 nM; with Miapaca-2 cells, 500 to 1000 nM; in experiment [3] it was not above 100 nM.

Consider `CNC(=O)c1cc(-c2cc(-c3cc(NC(=O)c4cnnc(C(C)(F)F)c4)ccc3C)ccn2)ccn1` [Example 492], for which the IC50 in experiment [1], in experiment [2] and in experiment [3] was not above 100 nM each time.

Take `CNC(=O)c1cc(-c2cc(-c3cc(NC(=O)c4ccnc(C5(F)CC5)c4)ccc3C)ccn2)ccn1` [Example 487]: the IC50 in experiment [1] is not above 100 nM; in experiment [2], not above 100 nM; in the experiment with Miapaca-2 cells, 1000 to 10000 nM; in experiment [3], not above 100 nM.

`CNC(=O)c1cc(-c2cc(-c3cc(NC(=O)c4ccnc(C(C)(C)F)n4)ccc3C)ccn2)ccn1` [Example 494]: the IC50 in experiment [1] was 100 to 500 nM; in experiment [2], not above 100 nM; in the experiment with Miapaca-2 cells, 1000 to 10000 nM; in experiment [3], not above 100 nM.

With `Cc1ccc(NC(=O)c2ccc(C(F)(F)F)cc2)cc1-c1ccnc(-c2ccnc(NC(=O)C3CC3)c2)c1` [Example 501], the IC50 in experiment [1] was not above 100 nM; in experiment [2], not above 100 nM; in the experiment with Miapaca-2 cells, 1000 to 10000 nM; in experiment [3], 100 to 500 nM.

Turning to `Cc1ccc(NC(=O)c2cc(C(F)(F)F)ccc2F)cc1-c1ccnc(-c2ccnc(NC(=O)C3CC3)c2)c1` [Example 503], the IC50 in experiment [1] was not above 100 nM; in experiment [2] it was not above 100 nM; in the experiment with Miapaca-2 cells, 1000 to 10000 nM; in experiment [3] it was not above 100 nM.

As for `CNC(=O)c1cc(-c2cc(-c3cc(NC(=O)c4cnnc(C(C)(C)F)c4)ccc3C)ccn2)ccn1` [Example 495], the IC50 in experiment [1] is not above 100 nM; in experiment [2], not above 100 nM; in the experiment on Miapaca-2 cells, 1000 to 10000 nM; in experiment [3] it was not above 100 nM.

Consider `Cc1ccc(NC(=O)c2cn(C)nc2C(F)(F)F)cc1-c1cncc(-c2ccnc(NC(=O)C3CC3)c2)c1` [Example 500], for which the IC50 in experiment [1] is not above 100 nM; in experiment [2], not above 100 nM; in the experiment with Miapaca-2 cells, 1000 to 10000 nM; in experiment [3], not above 100 nM.
